Data from PubChem BioAssay (NCI).
Several values for one entry are separate records, joined by “and”; a condition that tells them apart may be missing. Equal entries are not always repeated.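 Interpolation was linear, between the two tested concentrations surrounding the appropriate level; five concentrations were tested over 48 hours in 96-well plates. Here, GI50 denotes the concentration required for 50% inhibition of growth. TGI marks complete inhibition of growth.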

Tested on: MDA-MB-468 breast
Assay: growth of human tumour cells (NCI), 48 h

Row | SMILES | GI50 | TGI
1 | Cc1ccc(C(=O)/C(=C\c2ccc([N+](=O)[O-])cc2)S(=O)Cc2ccc(F)cc2)cc1 (centres undefined) | 1850 nM | 3690 nM
2 | CCN(CC)CCCC(C)Nc1c2ccc(Cl)cc2nc2cc(OC)c(OC)cc12 (centres undefined) | 1300 nM | 2830 nM
3 | CN[C@@H]1C[C@H]2O[C@@](C)([C@@H]1OC)n1c3ccccc3c3c4c(c5c6ccccc6n2c5c31)C(=O)N[C@H]4O | 17.6 nM | 105 nM
4 | COc1ccc(-c2cn(-c3cccc(C(=O)/C=C/c4ccc(O)c(OC)c4)c3)c(=O)[nH]2)cc1 | 5460 nM | > 100000 nM
5 | CN1CCC(C(=O)Nc2n[nH]c3nc(-c4ccc(O)cc4)c(Br)cc23)CC1 | 486 nM and 779 nM | 1410 nM and 2830 nM
6 | COc1ccc([I+]c2ccccc2)cc1 | 253 nM | > 36600 nM
7 | Nc1nc2ccc3[nH]ncc3c2c2c1CCCC2 | 1460 nM | 2920 nM
8 | COc1ccc2c(c1)CCc1[nH]nc(-c3cc(OC)c(OC)c(OC)c3)c1-2 | < 10 nM | < 10 nM
9 | O=C(O)c1ccc([S-])cc1.[Au+].c1ccc(CN2[CH-]N(Cc3ccccc3)C(c3ccccc3)=C2c2ccccc2)cc1 | 188 nM | 873 nM
10 | COc1cc(-c2csc(NC(=O)Nc3cc(C(F)(F)F)cc(C(F)(F)F)c3)n2)cc(OC)c1OC | 1330 nM | 9280 nM
11 | COc1ccc2c3c(c4ccccc4cc13)C(=O)N(CCN(C)CCN)C2=O | 289 nM | 1160 nM
12 | c1ccc(Nn2c(CCCCCCCCc3nnc(COc4ccccc4)n3Nc3ccccc3)nnc2COc2ccccc2)cc1 | 12800 nM and 61600 nM | > 300000 nM
13 | CCCOC(=O)N[C@H]1CCc2cc(OC)c(OC)c(OC)c2-c2ccc(SC)c(=O)cc21 | < 10 nM | 13500 nM
14 | COc1ccc(C2=Nc3c/c(=C\c4c(O)[nH]c5ccc(Cl)cc45)ccc3=N2)cc1 | 1480 nM | 3070 nM
15 | O=CC(Br)C(Br)c1ccccc1 (centres undefined) | 1480 nM | 3650 nM
16 | O=[N+]([O-])c1ccc2nc(/C=C(\O)c3ccccc3)c(/C=C(\O)c3ccccc3)nc2c1 | 4000 nM | 61700 nM

Row | SMILES | GI50 | TGI
17 | CCOc1ccc2nc(-c3cccc(OCC(=O)NC(C)C)c3)nc(Nc3ccc(-c4cn[nH]c4)cc3)c2c1 | 2310 nM | 14900 nM
18 | Cc1cc([N+](=O)[O-])ccc1NS(=O)(=O)c1cc(Cl)ccc1Cl | 1660 nM | 7610 nM
19 | CSc1n(Cc2ccc3ccccc3c2)c(C)c[n+]1Cc1ccc2ccccc2c1 | 211 nM | 672 nM
20 | Cc1cc(Nc2ccc(F)cc2)nc(N2CCN(c3ccnc4cc(Cl)ccc34)CC2)n1 | 2720 nM | > 100000 nM
21 | COc1cc2c(cc1OC)-c1ccc3cc4c(cc3c1N(CCN(C)C)C2)OCO4 | 210 nM | 762 nM
22 | O=C(O)c1ccc2c3c(ncnc13)-c1ccccc1C2=O | > 81900 nM | > 100000 nM
23 | Cc1cccc(Cl)c1NC(=O)c1cnc(Nc2cc(N3CCOCC3)cc(N3CCOCC3)c2)s1 | 326 nM | 2770 nM
24 | COc1cc(C2c3cc4c(cc3OC3(OC)COC(=O)C23)OCO4)cc(OC)c1OC (centres undefined) | 616 nM | 88600 nM
25 | CC1(C)N=C(N)N=C(N)N1c1ccc(CCc2ccc(Cl)cc2S(=O)(=O)F)c(Cl)c1 | 3590 nM | 24200 nM
26 | COc1ccc(-c2nn(-c3cccc(Cl)c3)cc2-c2c(C#N)c(=O)n3[nH]c(-c4ccc(C)cc4)nc3c2C#N)cc1 | 1050 nM | 2880 nM
27 | Cn1cc(-c2nc(-c3c[nH]c4ccncc34)cs2)c2cc(F)ccc21 | 1400 nM | 2890 nM
28 | CN1C(=O)C(=Cc2cn(Cc3ccccc3)c3ccccc23)C(=O)N(C)C1=O | 63.9 nM | 158 nM
29 | COc1ccc2c(c1)c1nc3cc(C)c(C)cc3nc1n2CCN(C)C | 761 nM | 2450 nM
30 | COc1ccc(SC2c3ccc(C)cc3Oc3nc(N)c(C#N)c(N)c32)cc1 (centres undefined) | 1790 nM | 3600 nM
31 | O=C(NCCN1CCC(O)CC1)c1cc2c(o1)C(=O)c1ccccc1C2=O | 202 nM | 559 nM
32 | c1cncc(-c2nc3ccccc3s2)c1 | > 100000 nM | > 100000 nM
